We go through 20 compounds from PubChem BioAssay (NCI).

Some test systems named below: KM20L2 colon; UACC-257 melanoma; LXFL 529 NSCLC; SK-MEL-28 melanoma; SK-OV-3 ovarian; NCI-H23 lung; ACHN renal; RXF 393 renal; DU-145 prostate; MDA-MB-435.
What all share (experiment): NCI tumour cell line growth inhibition, 48 h

Values joined by “and” are separate entries in the source; they are usually repeats but may differ in a detail not shown here. Equal entries are not always repeated.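 In this assay, cells in 96-well plates receive the compound at five concentrations for 48 hours. Endpoints are linearly interpolated between the surrounding concentrations. The concentration for 50% growth inhibition is given as GI50. TGI: concentration producing complete growth inhibition.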

For `CC[PH+](CC)CC.CC[PH+](CC)CC.[Au]`, the GI50 is 17.3 µM in the test on KM20L2 colon; 11.4 µM in the test on UACC-257 melanoma; 2.31 µM in the test on LXFL 529 NSCLC; 3.88 µM with SK-MEL-28 melanoma; 20.9 µM in the test on SK-OV-3 ovarian; 13.3 µM in the test with NCI-H23 lung. Moreover, the GI50 with ACHN renal is 17.6 µM. Also, the TGI with KM20L2 colon is 33.3 µM; in the test with UACC-257 melanoma it was 24.4 µM; in the test with LXFL 529 NSCLC, 6.33 µM; in the test on SK-MEL-28 melanoma it was 16.9 µM; with SK-OV-3 ovarian, 35.2 µM; in the test with NCI-H23 lung, 28.6 µM. For the same compound, the TGI with ACHN renal is 31.4 µM.
Consider `COC(=O)C1[C@H](c2ccc3c(c2)OCO3)OC(=O)[C@]1(C(=O)OC)C(=O)c1ccc(OC)c(OC)c1` (some centres undefined), for which the TGI in the test with KM20L2 colon, in the test with UACC-257 melanoma, in the test on LXFL 529 NSCLC, with SK-OV-3 ovarian, in the test with NCI-H23 lung and in the test with ACHN renal was over 100 µM throughout.
Consider `c1ccc2c(CNCCCCCCCCNCc3cccc4ccccc34)cccc2c1`, for which the TGI in the test with KM20L2 colon was 3.22 µM; with UACC-257 melanoma it was 3.29 µM; in the test on LXFL 529 NSCLC it was 3.22 µM; in the test with SK-MEL-28 melanoma, 3.32 µM; in the test with SK-OV-3 ovarian, 30.9 µM; in the test on NCI-H23 lung, 14.8 µM. Besides, the TGI amounted to 3.13 µM with RXF 393 renal and 8.36 µM with ACHN renal.
In the case of `CCC1(c2ccc(N)cc2)CCC(=O)NC1=O` (centres undefined), the TGI with KM20L2 colon is over 5000 µM; in the test with UACC-257 melanoma it was over 4880 µM; in the test on DU-145 prostate it was over 5000 µM; with SK-MEL-28 melanoma, over 5000 µM; with SK-OV-3 ovarian, 1950 µM; with MDA-MB-435 it was over 5000 µM. For the same compound, the TGI in the test with NCI-H23 lung was over 5000 µM; in the test on RXF 393 renal it was over 3970 µM; with ACHN renal it was over 5000 µM.
As to `O=[N+]([O-])C=C1c2ccccc2-c2ccccc21`, the TGI with KM20L2 colon is 34.5 µM; in the test on UACC-257 melanoma, 33.7 µM; with LXFL 529 NSCLC it was 28.2 µM; in the test with SK-MEL-28 melanoma, 31.1 µM; in the test on NCI-H23 lung, 30.4 µM; in the test with RXF 393 renal it was 31.3 µM. This compound also displayed a TGI in the test with ACHN renal of 30.6 µM.
As for `N#CCc1nnc(N)o1`, the TGI with KM20L2 colon, with UACC-257 melanoma, in the test with LXFL 529 NSCLC, with SK-MEL-28 melanoma, in the test on SK-OV-3 ovarian and in the test on NCI-H23 lung was over 100 µM in each case. Further, the TGI in the test with ACHN renal was over 100 µM.
As for `Cc1ccc(C2=Nc3ccccc3S(=O)C(c3ccc4c(c3)OCO4)C2)cc1` (centres undefined), the TGI in the test with KM20L2 colon is 33 µM; in the test with UACC-257 melanoma, 88.4 µM; in the test on LXFL 529 NSCLC, over 10 µM; with SK-MEL-28 melanoma, 89.9 µM; in the test on SK-OV-3 ovarian, 91.3 µM; in the test on NCI-H23 lung it was 48.9 µM. Also, the TGI in the test on RXF 393 renal came out at 32.1 µM; in the test with ACHN renal it was 82.4 µM.
For `C=C1CC2(CCS(=O)(=O)c3ccccc32)OC1=O` (centres undefined), the TGI in the test on KM20L2 colon was 28.6 µM; in the test with UACC-257 melanoma, 32.1 µM; in the test on LXFL 529 NSCLC it was 15.9 µM; in the test with SK-MEL-28 melanoma, 27.8 µM; in the test on SK-OV-3 ovarian, 44.1 µM; in the test on NCI-H23 lung it was 27.7 µM. For the same compound, in the test on ACHN renal, the TGI was found to be 23.7 µM.
`COc1cc(O)c2c(c1)C(=O)C1=C(C2=O)C(O)C[C@@](C)(O)C1` (some centres undefined): the TGI in the test with KM20L2 colon worked out at 11.6 µM; in the test on UACC-257 melanoma, 1.24 µM; in the test on LXFL 529 NSCLC, 2.1 µM; in the test with SK-MEL-28 melanoma, 3.15 µM; in the test on SK-OV-3 ovarian it was 17.1 µM; in the test with NCI-H23 lung, 3.3 µM. Besides, the values for the TGI with RXF 393 renal and in the test on ACHN renal were 3.05 µM and 4.46 µM, respectively.
In the case of `Cc1ccc(C(=O)NCCN(C)C)c2nc3ccccc3cc12`, the TGI in the test with KM20L2 colon is 6 µM; with UACC-257 melanoma, 6.01 µM; in the test with LXFL 529 NSCLC, over 100 µM; with SK-MEL-28 melanoma, 5.46 µM; in the test on SK-OV-3 ovarian it was over 100 µM; in the test on RXF 393 renal, 3.29 µM. In the test with ACHN renal, this compound showed a TGI of 10.3 µM.
Turning to `CCCCCCCCCCOC(=O)NCCC`, the TGI is 62.2 µM with KM20L2 colon; 92.8 µM with UACC-257 melanoma; over 100 µM with LXFL 529 NSCLC; over 100 µM with SK-MEL-28 melanoma; over 100 µM in the test on SK-OV-3 ovarian; over 100 µM in the test on NCI-H23 lung. Also, the TGI was 39.9 µM in the test with RXF 393 renal and over 100 µM with ACHN renal.
Regarding `O=C(O)c1c2c(cc3c(=O)cc(-c4ccccc4)oc13)CCCC2`, the TGI in the test with KM20L2 colon, in the test on UACC-257 melanoma, in the test with LXFL 529 NSCLC, in the test with SK-MEL-28 melanoma, in the test on SK-OV-3 ovarian and with NCI-H23 lung was over 100 µM in each case. Besides, the TGI in the test on ACHN renal was over 100 µM.
In the case of `O=C(O)CN(c1ccc(F)cc1)S(=O)(=O)c1ccccc1`, the TGI with KM20L2 colon, in the test on UACC-257 melanoma, in the test on LXFL 529 NSCLC, with SK-MEL-28 melanoma, in the test on SK-OV-3 ovarian and with NCI-H23 lung was over 100 µM each time. Besides, the TGI in the test with RXF 393 renal and with ACHN renal was over 100 µM throughout.
For the compound `COC12OCCN(C)C1=CC(=O)C1(C)N=NCC12` (centres undefined), the TGI with UACC-257 melanoma, with LXFL 529 NSCLC, in the test with SK-MEL-28 melanoma, in the test with SK-OV-3 ovarian, in the test with NCI-H23 lung and with RXF 393 renal was over 100 µM each time. In addition, in the test on ACHN renal, the TGI was over 100 µM.
Consider `CCOC(=O)CN(c1ccccc1)c1nc(=[N+](C)C)ss1`, for which the TGI with KM20L2 colon was over 100 µM; with UACC-257 melanoma, 96 µM; with SK-MEL-28 melanoma it was over 100 µM; in the test on SK-OV-3 ovarian, over 100 µM; in the test with RXF 393 renal, over 100 µM; in the test on ACHN renal it was over 100 µM.
As for `Nc1nn(C(=O)Nc2c(F)cccc2F)c2ccccc12`, the GI50 with UACC-257 melanoma is 71.7 µM; in the test with DU-145 prostate, 62.3 µM; with SK-MEL-28 melanoma, 56.3 µM; in the test on SK-OV-3 ovarian, over 100 µM; with MDA-MB-435, 54.9 µM; with NCI-H23 lung, 95.6 µM. Further, the GI50 in the test with RXF 393 renal is 20.2 µM; with ACHN renal, 50.1 µM. For the same compound, the TGI in the test with UACC-257 melanoma, in the test on DU-145 prostate, with SK-MEL-28 melanoma, with SK-OV-3 ovarian, in the test with MDA-MB-435 and with NCI-H23 lung was over 100 µM throughout. The TGI with RXF 393 renal and with ACHN renal was over 100 µM throughout.
`COC(=O)CNc1nc(N(C)O)nc(N(C)O)n1`: the GI50 was 11.6 µM with UACC-257 melanoma; 2.15 µM in the test on DU-145 prostate; 4.53 µM in the test with SK-MEL-28 melanoma; 10.3 µM with SK-OV-3 ovarian; 10.5 µM with MDA-MB-435; 11.5 µM in the test with NCI-H23 lung. Besides, the GI50 in the test with RXF 393 renal is 4.85 µM; in the test with ACHN renal, 1.35 µM. Besides, the TGI was 80.3 µM in the test with UACC-257 melanoma; 45 µM in the test on DU-145 prostate; over 100 µM in the test with SK-MEL-28 melanoma; over 100 µM in the test on SK-OV-3 ovarian; over 100 µM in the test with MDA-MB-435; over 100 µM with NCI-H23 lung. Further, the TGI in the test on RXF 393 renal and in the test on ACHN renal was over 100 µM throughout.
For the compound `CC(C)Cc1ccc(C(C)C(=O)NCc2ccc(Cn3c(=O)sn(CCCI)c3=O)cc2)cc1` (centres undefined), the GI50 is 1.28 µM with UACC-257 melanoma; 0.861 µM in the test with DU-145 prostate; 1.2 µM in the test on SK-MEL-28 melanoma; 2.88 µM with SK-OV-3 ovarian; 0.485 µM in the test with MDA-MB-435; 1.32 µM with NCI-H23 lung. Moreover, the GI50 in the test on RXF 393 renal is 0.326 µM; with ACHN renal, 0.233 µM. The TGI in the test on UACC-257 melanoma was found to be 2.7 µM; in the test on DU-145 prostate, 2.12 µM; in the test with SK-MEL-28 melanoma, 2.46 µM; with SK-OV-3 ovarian, 8.23 µM; in the test with MDA-MB-435 it was 1.77 µM; with NCI-H23 lung it was 2.79 µM. Moreover, the figures for the TGI in the test with RXF 393 renal and in the test with ACHN renal were 1.33 µM and 0.633 µM, respectively.
`CC1Cc2ccccc2N1C(=O)Cc1nc(N2CCOCC2)cc(=O)[nH]1` (centres undefined): the GI50 is 15.9 µM and 20.2 µM in the test on UACC-257 melanoma; 15.8 µM and 28.1 µM with DU-145 prostate; 5.13 µM and 18.5 µM with SK-MEL-28 melanoma; 4.9 µM and 13.3 µM in the test on SK-OV-3 ovarian; 20.9 µM and 27.7 µM with MDA-MB-435; 48.7 µM and > 91.5 µM with NCI-H23 lung. Also, the GI50 in the test on RXF 393 renal is 0.277 µM and 1.4 µM; with ACHN renal it was 3.94 µM and 8.73 µM. Also, the TGI with UACC-257 melanoma, in the test on DU-145 prostate, in the test with SK-MEL-28 melanoma, with SK-OV-3 ovarian, in the test with MDA-MB-435 and in the test with NCI-H23 lung was over 100 µM in each case. The TGI is 8.17 µM and 16.2 µM in the test with RXF 393 renal; over 100 µM in the test with ACHN renal.
Take `CC(C)=NNC(=S)NC12CC3CC(CC(C3)C1)C2`: the TGI in the test on KM20L2 colon, in the test on UACC-257 melanoma, in the test on LXFL 529 NSCLC, in the test on SK-MEL-28 melanoma, with SK-OV-3 ovarian and with NCI-H23 lung was over 100 µM throughout. In addition, the TGI in the test on RXF 393 renal and with ACHN renal was over 100 µM throughout.
